Test: Circulating ketone level and ketotic efficiency after administration of D-BHB, D-BHV and D-1,3BD in various ratios to subjects at rest
Type: in vivo, human
Conditions: based on measured plasma levels of FIG. 1
From the text: Examples include using a composition including D-BHB, D-BHV, and D-1,3BD in a subject at rest. The ketotic efficiency represents the net elevation of circulating ketones a ketone supplement affects over time in an individual. Ketotic efficiency may be represented as: Σt=0^n(mMol/L)/(g/kg)*t where mMol/L is the concentration of circulating β-hydroxybutyrate in the blood, g is the total dose of the combined D-BHB, D-BHV, and D-1,3,BD in grams, kg is the mass of the individual in kilograms, and t is an increment of time in minutes.
While this example pertains to a fasted subject at rest, the relative utility of blended vs pure constituents has also been observed in fed and active subjects.
As illustrated by the examples of FIG. 1, these exemplary compositions can advantageously elevate circulating ketones by approximately two times greater than other known compositions. Such a composition can sustain ketonemia for longer than either D-BHB or D-1,3BD can when ingested alone by a subject of a given weight as shown by the 100% line (i.e., contains D-BHB, but not D-1,3BD) and the 0% line (i.e., contains only D-1,3BD, but not D-BHB).
As shown in the following table, the increase in circulating ketone level with a 10 g dose in three human subjects at rest was maximal at between 45-55% D-BHB in the tested compositions. […]

SMILES | prolonged rise of blood ketone levels
CC(O)CCO [D-1,3BD, (D)-1,3 butanediol] | does not cause a prolonged rise of blood ketone levels
CC(O)CC(=O)O [D-BHB, (D)-β-hydroxybutyric acid] | A similar result was obtained
